How the values were obtained:
Hela = test: In vitro anticancer activity test (MTT cell proliferation assay); assay type: cell-based; details: Homo sapiens
Description: (§1) The anticancer activity of the compounds was tested using an in vitro cancer cell tests. The specific test method is as follows: • 1. Cell recovery and culture method: the cryovial was taken out from the liquid nitrogen container firstly, soaked directly in 37°C warm water, and shaked from time to time to let it thaw as soon as possible. Then, the cryovial was transferred to a clean bench, and the lid was open. The cell suspension was taken into a centrifuge tube using a rubber-tipped dropper and more than 10 times the culture medium was added, mixed well, and centrifuged at 50g for 5 minutes. Then, the supernatant was discarded, complete culture medium containing 10% fetal bovine serum was added to resuspend the cells, the cells was counted, the cell density was adjusted, and then inoculated into a culture bottle. The culture bottle was placed in a cell culture incubator at 5% CO2 and 37°C. The complete culture medium was replaced once the next day and the culture was continued. • 2. Cell passaging method: adherent cells in the logarithmic growth phase were placed in a clean bench, the original culture medium was discarded, and washed three times with 1×PBS. An appropriate amount of 0.25% trypsin digestion solution was added to moisten the cells, and then the trypsin solution was aspirated. The cells were placed in a cell culture incubator at 5% CO2 and 37°C for digestion for a suitable time, and observed under a microscope. When 90% of the cells become round, the cells were moved immediately to the clean bench and complete culture medium was added to terminate digestion. Then, the cells were dislodged by pipetting up and down with a rubber-tipped dropper to single cells. The cells were counted, and the cell density was adjusted. The cells were inoculated into a suitable culture bottle or dish, added enough complete culture medium, and placed in a cell culture incubator at 5% CO2 and 37°C for static culture. For suspension cells in the logarithmic phase, the original culture medium was directly centrifuged at 50g for 5 minutes, the supernatant was discarded, and the cells were washed once with PBS and centrifuged. After discarding the supernatant, the complete culture medium was added and the cells were dispersed using a rubber-tipped dropper. The cells are counted, and the cell density was adjusted. The cells were inoculated into appropriate culture bottles or culture dishes, and sufficient complete culture medium was added, and the cells were cultured in a cell culture incubator at 5% CO2 and 37°C. • 3. Cell proliferation assay: cells in good state in logarithmic phase were taken and appropriate amount of the cells was inoculated into 96-well plates according to the cell passage treatment method, with each well containing 180 µL complete medium. After the cells growth was recovered and the number of cells in each well is 5000±500, a drug was added for treatment. After drug treatment during the experimental time, MTT solution with a final concentration of 0.5 mg/mL was added to each well, and placed in a cell culture incubator at 5% CO2 and 37°C to allow a fully reaction of MTT with cells. After 4 hours, the solution in the 96-well plate was discarded, 100 µL of DMSO was added, and shaked to dissolve the formazan precipitated at the bottom of the plate, and the absorbance value of samples was detected at a wavelength of 570 nm using a microplate reader. Calculation method of cell viability rate: Viability rate = A sample group÷A control group × 100% [formula] • 4. Cell photography step: cells in good state in logarithmic phase were taken and an appropriate amount of cells was inoculated into 96-well plates according to the cell passage treatment method, with each well containing 180 µL complete medium. After the cells growth was recovered and the number of cells in each well is 5000 ± 500, a drug was added for treatment. […]

[1] = test system: human breast cancer cell MFM223; test: as above; assay type: cell-based; details: MFM-223
Description: as §1

[2] = test system: human colon cancer cell HCT 116; test: as above; assay type: cell-based
Description: as §1

[3] = test system: human osteosarcoma cell U2-OS; test: as above; assay type: cell-based; details: U2OS
Description: as §1

[4] = test system: human breast ductal carcinoma cell T-47D; test: as above; assay type: cell-based; details: T47D
Description: (§2) The anticancer activity of the compounds was tested using an in vitro cancer cell tests. The specific test method is as follows: • 1. Cell recovery and culture method: the cryovial was taken out from the liquid nitrogen container firstly, soaked directly in 37°C warm water, and shaked from time to time to let it thaw as soon as possible. Then, the cryovial was transferred to a clean bench, and the lid was open. […] Then, the supernatant was discarded, complete culture medium containing 10% fetal bovine serum was added to resuspend the cells, the cells was counted, the cell density was adjusted, and then inoculated into a culture bottle. The culture bottle was placed in a cell culture incubator at 5% CO2 and 37°C. The complete culture medium was replaced once the next day and the culture was continued. • 2. Cell passaging method: adherent cells in the logarithmic growth phase were placed in a clean bench, the original culture medium was discarded, and washed three times with 1×PBS. An appropriate amount of 0.25% trypsin digestion solution was added to moisten the cells, and then the trypsin solution was aspirated. […] When 90% of the cells become round, the cells were moved immediately to the clean bench and complete culture medium was added to terminate digestion. Then, the cells were dislodged by pipetting up and down with a rubber-tipped dropper to single cells. The cells were counted, and the cell density was adjusted. The cells were inoculated into a suitable culture bottle or dish, added enough complete culture medium, and placed in a cell culture incubator at 5% CO2 and 37°C for static culture. For suspension cells in the logarithmic phase, the original culture medium was directly centrifuged at 50g for 5 minutes, the supernatant was discarded, and the cells were washed once with PBS and centrifuged. After discarding the supernatant, the complete culture medium was added and the cells were dispersed using a rubber-tipped dropper. The cells are counted, and the cell density was adjusted. The cells were inoculated into appropriate culture bottles or culture dishes, and sufficient complete culture medium was added, and the cells were cultured in a cell culture incubator at 5% CO2 and 37°C. • 3.

[5] = test system: human ovarian adenocarcinoma cellSK-OV-3; test: as above; assay type: cell-based; details: SK-OV-3
Description: as §2

[6] = test system: human acute T-lymphoblastic leukemia cell Jurkat; test: as above; assay type: cell-based
Description: as §2

[7] = test system: Staphylococcus aureus ATCC43300; test: Systemic blood infection animal model; assay type: in vivo, mice; details: for number of colonies of organs (liver and kidney), antibacterial effect: 4 mg/kg, oral gavage 3 times a day for 7 days (positive drug given as ciprofloxacin hydrochloride)
Description: Mice were administered by oral gavage with the drug solvent for the model group and the blank group. • (5) 8 h after the last administration, mice were euthanized by cervical dislocation, disinfected with 75% alcohol, and then necropsied under sterile conditions. The kidneys and livers were harvested, observed and photographed, and the weight was recorded. • (6) The kidneys and livers were placed in a sterile glass grinder and sterile PBS in a volume ten times the weight of the organs was added and grinded. The grinding solutions were taken out, 10-fold serially diluted, smeared to a TSA solid culture medium, and incubated at 37°C for 16 hours, then the colonies were counted. The number of colonies of the organs was calculated to evaluate the therapeutic effect.

| SMILES | IC50 (Hela) [µM] | IC50 [1] [µM] | IC50 [2] [µM] | IC50 [3] [µM] | IC50 [4] [µM] | IC50 [5] [µM] | inhibition at 40 µM (Hela; average proliferation inhibition rate at the dosage of 40 µM) [%] | IC50 [6] [µM] | number of colonies of organs (liver and kidney) versus control group ([7]; 1 mg/kg, oral gavage 3 times a day for 7 days) | number of colonies of organs (liver and kidney), antibacterial effect [7] | antibacterial effect in the liver and kidney (number of colonies) compared with ciprofloxacin ([7]; oral gavage 3 times a day for 7 days, Figure 4) |
| --- | --- | --- | --- | --- | --- | --- | --- | --- | --- | --- | --- |
| CCN(CC)CCNC(=O)c1c(C)[nH]c(/C=C2\C(=O)Nc3ccc(F)cc32)c1C [Sunitinib] | 12 ± 2 | 10.2 ± 3.8 | 20.7 ± 4.6 | 4.7 ± 1.1 | 6.4 ± 1.7 | 12.2 ± 5.8 |  |  |  |  |  |
| O=C(O)c1cn(C2CC2)c2c(Cl)c(-c3ccc(S(=O)(=O)NCCCC(F)(F)F)nc3)c(F)cc2c1=O [Example 29, 8-chloro-1-cyclopropyl-6-fluoro-4-oxo-7-(6-(N-(4,4,4-trifluorobutyl)sulfamoyl)pyridin-3-yl)-1,4-dihydroquinolin-3-carboxylic acid] | 1 to 10 | 1 to 10 | 1 to 10 | 1 to 10 | 1 to 10 | 1 to 10 | ≥ 50 | 1 to 10 | significant statistical difference from the control group | huge difference | very significant antibacterial effect |
| O=C(O)c1cn(C2CC2)c2cc(N3CCNCC3)c(F)cc2c1=O [Ciprofloxacin] | > 100 | > 100 | > 100 | > 100 |  |  |  | > 100 |  | not apparent |  |

From patent EP4644391A1, “NOVEL PHENYLQUINOLONE COMPOUND HAVING ANTIBACTERIAL AND ANTICANCER FUNCTIONS, AND PREPARATION THEREOF” (Alphamol Science Ltd (Shanghai), priority 2022, dated 2024)
